Data as given in patent US4842847A, “Dental calculus inhibiting compositions” (The B. F. Goodrich Company, priority 1987, dated 1989).
Like-named read-outs stand apart in the source and are kept apart here.

Conditions: pyrophosphate 25 ppm; for Time of Crystal Growth Inhibition: no anticalculus agent, pH 7.20, 25° C.
Protocol: The in vitro formation of hydroxyapatite (HAP) was measured titrimetrically using the pH - stat method described in Example I, above.
The pyrophosphate was used at the level of 25 ppm.

O=P(O)(O)OP(=O)(O)O [pyrophosphate]
effectiveness of pyrophosphate when incubated with enzyme (in words) (absence of anticalculus agent polymer, with enzyme): drastically reduced
Time of Crystal Growth Inhibition (pyrophosphatase No): 30 min
Time of Crystal Growth Inhibition (pyrophosphatase Yes): 11 min
delay of HAP formation (in words) (no enzyme): significantly delays HAP forma;tion
